Experimental findings from patent publication EP0540143B1, “Compounds and methods for inhibition of HIV and related viruses” (priority 1991, dated 1993) are described below.

SMILES strings stand for the structures. Where “and” joins values, the source holds several entries; their conditions need not be identical. Equal entries are not always repeated. Where two headings read alike, the source gives them in different places.

The test system of data set [1] is HIV-1. As to the kind of experiment: Test E (HIV-1 RT), RT activity in supernatant of infected MT-4/H9 cells. Format: cell-based. Conditions: Human immunodeficiency virus 1, H9, Test E. As to the method:
(§1) Tests E, F, G, H (HIV-IRT, HIV-2RT, SIVRT, no virus)
(§2) MT-4/H9-cells are adjusted to 2x10^5 cells/ml medium (RPMI 1640, 5% FCS, penicillin/streptomycin) and seeded into microplates (96 wells/plate) […] cell suspension/well giving 2 x 10^4 cells/well. The compound to be tested is made 10 mg/ml in DMSO = stock solution (stored at -20°C). The compound dissolved in DMSO is diluted 25 times in medium to give 400 mg/ml. Further dilutions to 40 mg/ml and 4 mg/ml are made in microplates.
(§3) 50 µl of the dilutions 400 mg/ml, 40 mg/ml and 4mg/ml are transferred to the "cell-containing" microplate with a multichannel pipette. […]
(§4) Finally 50 µl of virus suspension is added to each well (with a repetitive "Eppendorf multipett"). [Test E-HIV-1; Test F-HIV-2; Test G-SIV; Test H-no virus].
(§5) Each plate has at least four wells with virus but no drug (virus control) and two wells without virus (medium control). The plate is put into a plastic bag to avoid evaporation and incubated for six days in CO2-atmosphere. 10 µl supernatant from each well is transferred with a multichannel pipette into a new microplate to which 40 ml VDB, (50 mM Tris-HCl pH = 7.6, 35 mM KCl, 4 mM DTT, 1 mM EDTA, 1.3% Triton X-100), have been added to each well. The addition of 50 ml RT-reaction mix, (10 ml culture supernatant, 40 ml VDB and 50 ml reaction mixture giving a final concentration of: 100 mM Tris-HCl pH = 7.6, 100 mM KCl, 4 mM MgCl2, 4 mM DTT, 275 mg/ml BSA/ml, 5 mg (rA)n(dT)12-18/ml and 0.3 mM ^3H dTTP (specific activity 18.000 cpm/pmol)) gives a final volume of […]/well. After 60 minutes of incubation the whole assay volume is transferred by use of a cell harvester to a filter mat prewetted with 5% TCA. The filter is washed in 5% TCA and rinsed once in ethanol. After drying the filter mat at 60°C for 30 min. each filter (96/mat) is punched out and put into counting vials 2 ml of scintillation fluid is added and the samples are counted (1 min) or the whole filter mat is put into a plastic bag, 10 ml of scintillation fluid is added and the filter mat is counted in a Beckman Betaplate counter. Percent reduction of RT activity is determined by comparing RT activity for virus control with the RT activity measured for each dilution of the compound.

Data set [2] has as its system HIV-2. As to the kind of experiment: Test F (HIV-2 RT), RT activity in supernatant of infected MT-4/H9 cells. Format: cell-based. Conditions: Human immunodeficiency virus 2, H9, Test F. The protocol: as §1, §2, §3, §4, §5
For data set [3], the system named is HIV virus. As to the kind of experiment: Test A (XTT), MT4 cells infected with HIV. The settings on record: for inhibition at 10 µg/mL / inhibition at 1 µg/mL / inhibition at 100 µg/mL: Human immunodeficiency virus 1, MT4, Test A; for % inhibition: Test A. It counts as cell-based. An outline of the steps:
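MT4 cells in RPMI 1640 with 5% FCS and penicillin/streptomycin were plated in 96-well microplates at 2x10^4 cells/well, given compound diluted from a DMSO stock, then infected with HIV virus suspension. After six days' incubation in CO2, XTT was added for six hours, absorbance read at 450 nm (reference 650 nm), and percent reduction of virus-induced cytotoxicity calculated against infected and uninfected controls.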
In general terms: Tetrazolium assays rely on reduction of a dye to a coloured formazan, in cell work by metabolically active cells.

Data set [4] deals with MT4 cells. As to the kind of experiment: Test D (XTT), MT4 cells, no virus. It counts as cell-based. Conditions: Homo sapiens. The protocol:
(§6) Tests A, B, C, and D (XTT)
(§7) MT4 cells in a medium of RPMI 1640, 5% FCS, penicillin/streptomycin are adjusted to 2x10^5 cells/ml and seeded into microplates (96 wells/plate) 100 µl cell suspension/well giving 2x10^4 cells/well. The compound to be tested is made into a 10 mg/ml mixture in DMSO and stored at -20°C. The compound in DMSO is diluted with medium containing 10% DMSO in a 10-fold dilution series to give 1 mg/ml, 10 mg/ml, and […] solutions. Further dilutions to 400, 40, 4 and 0.4 mg/ml are made in medium containing microplates. Fifty µl of the 400, 40, and 4 mg/ml are transferred to the cell-containing microplates with a multi-channel pipette (final concentration: 100, 10, and 1 mg/ml). Finally, 50 µl of virus suspension is added to each well (with a repetitive "Eppendorf" multipipett). Each plate has at least six wells with the following: [Test A: HIV virus; Test B: HIV(II) virus; Test C: SIV virus; Test D: No virus]; with no drug (virus control) and six wells without virus (medium control). The plate is put into a plastic bag and incubated for six days in CO2 atmosphere. To each well in the plate is added 50 µl of XTT ((2,3-bis[2-methoxy-4-nitro-5-sulfophenyl]-5-[(phenylamino)carbonyl]-2H-tetrazolium hydroxide), (1 mg/ml 0.01-0.02 mM N-metyl-phenazonium methosulfate). After six hours of incubation in CO2 atmosphere the plates are covered with adhesive plate sealers and gently mixed on a vortex. Optical densities are determined at a wavelength of 450 nm and a reference wavelength of 650 nm. The percent reduction of cytotoxocity caused by the virus infection is calculated as follows: (OD450 compound - OD450 inf cells)/(OD450 uninf cells - OD450 inf cells)x 100 [formula]

Data set [5] has as its system HIV(II) virus. As to the kind of experiment: Test B (XTT), MT4 cells infected with HIV(II). Format: cell-based. The settings on record: Human immunodeficiency virus 1, MT4, Test B. As to the method:
as §6, §7

The test system of data set [6] is SIV virus. As to the kind of experiment: Test C (XTT), MT4 cells infected with SIV. Format: cell-based. The settings on record: Simian immunodeficiency virus, MT4, Test C. As to the method:
as §6, §7

The target of data set [7] is recombinant HIV-RT (Human immunodeficiency virus type 1 group M subtype B, UniProt P04585). As to the kind of experiment: Test I (HIVRT (rAdt)), direct inhibition of recombinant HIV-RT. It counts as biochemical. An outline of the steps: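 Recombinant HIV-RT was incubated 60 min in Tris-HCl pH 7.6 with 100 mM KCl, 4 mM MgCl2 and 4 mM DTT, using (rA)n(dT)12-18 template and 0.3 mM ³H-dTTP. Product was spotted in duplicate on paper discs, TCA-washed and counted by scintillation.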

Data set [8] has as its system SIV. As to the kind of experiment: Test G (SIV RT), RT activity in supernatant of infected MT-4/H9 cells. It counts as cell-based. The settings on record: Simian immunodeficiency virus. The protocol: as §1, §2
50 µl of the dilutions 400 mg/ml, 40 mg/ml and 4mg/ml are transferred to the "cell-containing" microplate with a multichannel pipette. (Final concentration: 100, 10 and 1 mg/ml).
as §4, §5

Data set [9] is described as follows: titration pKa (66% DMF/H2O).

Broadly, the inhibition is the drop in the measured response relative to a control, in per cent. In general, % inhibition refers to the percentage by which the read-out fell short of the control. As to `FC(F)(F)c1csc(NC(=S)NCCc2ccccc2)n1`, the inhibition at 0.1 µg/mL in data set [1] was determined as 98%; in data set [2], 56%; in data set [4] (0.1 µg/ml) it was 0%; in data set [5], 21%; in [6] (0.1 µg/ml), 9%; in [7] (0.1 µg/ml) it was 63%. The inhibition at 1 µg/mL in [1] came to 97%; in [2] it was 95%; in data set [4] it was 46%; in data set [5] it was 100%; in [6] it was 11%; in data set [7] (1 µg/ml) it was 73%. The inhibition at 10 µg/mL came to 96% in data set [1]; 98% in data set [2]; 24% in data set [3] (10 µg/ml); 75% in data set [4]; 38% in data set [5]; 5% in data set [6]. Besides, the inhibition at 10 µg/mL in data set [7] (10 µg/ml) was determined as 73%. Also, the inhibition at 100 µg/mL in data set [1] was 97%; in data set [2] it was 96%; in [4] it was 68%; in [5], 19%; in data set [6], 43%. Besides, the “% inhibition” value in data set [3] (0.1 µg/ml) was 62% and 84%; in data set [3] (1 µg/ml), 100% and 75% and 84%; in data set [3] (10 µg/ml), 16% and 31%; in data set [7] (0.1 µg/ml), 68%; in [7] (1 µg/ml) it was 75%; in data set [7] (10 µg/ml) it was 75%.
Take `S=C(NCCc1ccccc1)Nc1nc2c(Cl)cccc2s1`: the inhibition at 1 µg/mL in [1] amounted to 11%; in data set [8], 1%; in [2], 6%; in data set [3] (1 µg/ml), 4%; in data set [5], 22%; in data set [6] it was 0%. Further, in data set [7] (1 µg/ml), the inhibition at 1 µg/mL was determined as 6%. The inhibition at 10 µg/mL was 8% in data set [1]; 1% in [8]; 72% in data set [2]; 19% in data set [3] (10 µg/ml); 100% in [5]; 2% in data set [6]. Moreover, in data set [7] (10 µg/ml), the inhibition at 10 µg/mL turned out to be 1%. In addition, the inhibition at 100 µg/mL in data set [1] was 97%; in data set [8] it was 87%; in [2] it was 93%; in [3] (100 µg/ml), 100%; in data set [5], 36%; in data set [6] it was 17%. Moreover, the inhibition at 0.1 µg/mL amounted to 1% in data set [2], 18% in [5] and 9% in [7] (0.1 µg/ml).
Take `S=C(NCCc1ccccc1)Nc1nc2ccc(Cl)cc2s1`: the inhibition at 1 µg/mL stood at 1% in [1]; 1% in data set [8]; 1% in data set [2]; 0% in [3] (1 µg/ml); 9% in data set [5]; 0% in [6]. Also, the inhibition at 1 µg/mL in data set [7] (1 µg/ml) was determined as 18%. Moreover, the inhibition at 10 µg/mL in data set [1] amounted to 51%; in data set [8], 12%; in data set [2] it was 79%; in data set [3] (10 µg/ml), 63%; in data set [5], 67%; in [6], 0%. Further, the inhibition at 10 µg/mL in data set [7] (10 µg/ml) came to 18%. In addition, the inhibition at 100 µg/mL in [1] is 96%; in [8], 90%; in data set [2], 98%; in data set [3] (100 µg/ml), 68%; in data set [5], 27%; in [6], 21%. Moreover, the “% inhibition” value in [3] (10 µg/ml) was 67%; in data set [3] (100 µg/ml) it was 49%. Moreover, the inhibition at 0.1 µg/mL in [5] stood at 24%; in data set [7] (0.1 µg/ml), 12%.
On to `Fc1ccc2nc(NC(=S)NCCc3ccccc3)sc2c1`, for which the inhibition at 0.1 µg/mL worked out at 1% in data set [1], 4% in data set [2], 4% in data set [5] and 33% in data set [7] (0.1 µg/ml). The inhibition at 1 µg/mL in [1] stood at 51%; in data set [2] it was 77%; in [4], 5%; in [5] it was 40%; in data set [6], 2%; in data set [7] (1 µg/ml), 38%. In addition, the inhibition at 10 µg/mL in data set [1] turned out to be 16%; in [2] it was 62%; in [4], 28%; in data set [5], 12%; in data set [6], 5%; in data set [7] (10 µg/ml) it was 39%. For the same molecule, the inhibition at 100 µg/mL was 95% in [1]; 97% in [2]; 0% in data set [4]; 93% in data set [5]; 19% in data set [6]. Also, the “% inhibition” value in data set [3] (100 µg/ml) was 100% and 72%.
Usually pKa stands for the negative logarithm of the acid dissociation constant. Read a high pKa as a group that holds its proton tightly. As to `NCCc1c(F)cccc1F` [Example 312, 2-(2,6-Difluorophenyl)ethylamine], the pKa in data set [9] turned out to be 9.06.
On to `S=C(NCCC1=CCCCC1)Nc1ccc(Cl)nn1` [Example 336, N-[2-(1-cyclohexenyl)ethyl]-N'-[3-(6-chloro)pyridazinyl]thiourea], for which, in data set [9] (pKa, 66% DMF), the pKa is 12.8.
